Legend:
AR protein = biological target: T1, AR protein (Homo sapiens, UniProt P10275, T878A); assay: AR protein degradation in LNCaP cells (Western blot); assay type: cell-based; settings: 8 hours; for Degradation of AR protein in LNCaP cells, 10 nM (%) / percent AR protein degradation at a fixed concentration at 0.01 µM: 10 nM; for Degradation of AR protein in LNCaP cells, 100 nM (%) / percent AR protein degradation at a fixed concentration at 0.1 µM: 100 nM
T1 construct: host or cells: LNCaP FGC
T1 sequence (P10275 1-920 T878A): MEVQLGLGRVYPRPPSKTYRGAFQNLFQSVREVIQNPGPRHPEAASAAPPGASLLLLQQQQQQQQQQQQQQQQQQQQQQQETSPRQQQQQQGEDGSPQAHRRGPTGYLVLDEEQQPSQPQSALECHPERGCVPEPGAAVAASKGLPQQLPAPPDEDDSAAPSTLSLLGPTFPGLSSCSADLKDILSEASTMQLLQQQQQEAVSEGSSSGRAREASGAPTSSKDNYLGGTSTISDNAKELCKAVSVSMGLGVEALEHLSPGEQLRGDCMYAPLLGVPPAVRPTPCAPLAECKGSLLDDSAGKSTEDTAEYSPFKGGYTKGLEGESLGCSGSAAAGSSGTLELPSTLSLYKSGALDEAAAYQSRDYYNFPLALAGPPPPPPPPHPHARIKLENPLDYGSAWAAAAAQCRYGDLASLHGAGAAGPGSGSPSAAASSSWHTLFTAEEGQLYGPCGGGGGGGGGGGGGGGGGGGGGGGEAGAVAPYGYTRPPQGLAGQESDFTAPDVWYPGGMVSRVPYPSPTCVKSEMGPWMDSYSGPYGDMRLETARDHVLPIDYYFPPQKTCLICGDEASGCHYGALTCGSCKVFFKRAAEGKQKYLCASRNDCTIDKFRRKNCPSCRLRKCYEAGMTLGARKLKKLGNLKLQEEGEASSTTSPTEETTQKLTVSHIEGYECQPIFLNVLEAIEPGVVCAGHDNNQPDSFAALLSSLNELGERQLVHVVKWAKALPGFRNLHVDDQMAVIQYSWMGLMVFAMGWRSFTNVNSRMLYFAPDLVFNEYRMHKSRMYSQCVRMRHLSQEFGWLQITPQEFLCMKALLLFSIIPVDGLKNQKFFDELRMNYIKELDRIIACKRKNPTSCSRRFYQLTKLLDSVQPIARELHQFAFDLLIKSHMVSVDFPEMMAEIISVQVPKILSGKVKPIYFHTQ
Method in brief: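 AR degradation rate derived from Western blot band densitometry, referenced to GAPDH, using total lysates of LNCaP cells treated 8 h with compound versus solvent control. Detection used infrared dual-color imaging after SDS-PAGE and PVDF transfer.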

LNCaP cells = assay: Inhibition of LNCaP cell proliferation (WST-8); assay type: cell-based; settings: LNCaP FGC cells, 96 hours
Method in brief: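 WST-8 absorbance at 450 nm measured proliferation after 96 h of compound exposure at 37 °C, 5% CO2. Dosing used nine 5-fold dilutions from a 10 µM top final concentration, applied to cells cultured overnight beforehand.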

Compound | Degradation of AR protein in LNCaP cells, 10 nM (%) (AR protein) | Degradation of AR protein in LNCaP cells, 100 nM (%) (AR protein) | IC50 (LNCaP cells; Homo sapiens) | percent AR protein degradation at a fixed concentration at 0.01 µM (AR protein) | percent AR protein degradation at a fixed concentration at 0.1 µM (AR protein) | IC50 (LNCaP cells)
CC1(C)[C@H](NC(=O)c2ccc(N3CCC(CN4CCC5(CCc6cc(C(=O)N[C@H]7CCC(=O)NC7=O)c(F)cc6O5)CC4)CC3)nc2)C(C)(C)[C@H]1Oc1ccc(C#N)c(Cl)c1 [A-P-50, 1'-((1-(5-(((1R,3R)-3-(3-chloro-4-cyanophenoxy)-2,2,4,4-tetramethylcyclobutyl)carbamoyl)pyridin-2-yl)piperidin-4-yl)methyl)-N-((S)-2,6-dioxopiperidin-3-yl)-7-fluorospiro[chroman-2,4'-piperidin]-6-carboxamide] | 73% | 91% | 0.18 µM |  |  | 
COc1cc(O[C@H]2C(C)(C)[C@H](NC(=O)c3ccc(N4CCC(N5CCC6(CC5)COc5c6ccc6c5n(C)c(=O)n6C5CCC(=O)NC5=O)CC4)cc3)C2(C)C)ccc1C#N (stereo partly drawn) [A-P-29] |  |  | 15.1 µM | 6% | -27% | 
COc1cc(O[C@H]2C(C)(C)[C@H](NC(=O)c3ccc(N4CCC(CN5CCC6(CC5)COc5c6ccc(C(=O)N[C@H]6CCC(=O)NC6=O)c5F)(OC)CC4)cc3)C2(C)C)ccc1C#N [A-P-86, 1'-((1-(4-(((1r,3r)-3-(4-cyano-3-methoxyphenoxy)-2,2,4,4-tetramethylcyclobutyl)carbamoyl)phenyl)-4-methoxypiperidin-4-yl)methyl)-N-((S)-2,6-dioxopiperidin-3-yl)-7-fluoro-2H-spiro[benzofuran-3,4'-piperidin]-6-carboxamide] | 37% | 39% | 0.39 µM |  |  | 
(S)-3-((1-(4-(((S)-2-(3-chloro-4-cyanophenyl)-3-methyl-2,8-diazaspiro[4.5]decan-8-yl)phenyl)piperidin-4-yl)methyl)-N-(((S)-2,6-dioxopiperidin-3-yl)-1,2,3,4,4a,5-hexahydrobenzo[b]pyrazi no[1,2-d][1,4]oxazine-8-carboxamide [A-P-57] | 39% | 76% |  |  |  | 0.67 µM
COc1cc(O[C@H]2C(C)(C)[C@H](NC(=O)c3ccc(N4CCC(C)(CN5CCC6(CC5)COc5c6ccc(C(=O)N[C@H]6CCC(=O)NC6=O)c5F)CC4)cc3)C2(C)C)ccc1C#N [A-P-85, 1'-((1-(4-(((1r,3r)-3-(4-cyano-3-methoxyphenoxy)-2,2,4,4-tetramethylcyclobutyl)carbamoyl)phenyl)-4-methylpiperidin-4-yl)methyl)-N-((S)-2,6-dioxopiperidin-3-yl)-7-fluoro-2H-spiro[benzofuran-3,4'-piperidin]-6-carboxamide] | 7% | 40% | 0.29 µM |  |  | 
COc1cc(O[C@H]2C(C)(C)[C@H](NC(=O)c3ccc(N4CCC(CN5CCC6(CC5)COc5c6ccc(C(=O)N[C@H]6CCC(=O)NC6=O)c5F)CC4)cc3)C2(C)C)ccc1C#N [A-P-83] | 41% | 65% | 0.71 µM |  |  | 
COc1cc(O[C@H]2CC[C@H](NC(=O)c3ccc(N4CCC(CN5CCC6(CC5)COc5cc7c(cc56)n(C)c(=O)n7C5CCC(=O)NC5=O)CC4)nn3)CC2)ccc1C#N (relative stereo) [A-P-17] | 1% | -18% | 91.2 µM |  |  | 
Cn1c(=O)n(C2CCC(=O)NC2=O)c2cc3c(cc21)C1(CCN(C2CC4(CCN(c5ccc(C(=O)N[C@H]6CC[C@H](Oc7ccc(C#N)c(Cl)c7)CC6)nn5)CC4)C2)CC1)CO3 (relative stereo) [A-P-12, N-((1r,4r)-4-(3-chloro-4-cyanophenoxy)cyclohexy 1)-6-(2-(3-(2,6-dioxopiperidin-3-yl)-1-methyl-2-oxo-2,3-dihydro-1H,6H-spiro[benzofuro[5,6-d]imidazole-7,4'-piperidin]-1'-yl)-7-azaspiro[3.5]nonan-7-yl)pyridazine-3-carboxamide] | 56% | 9% | 8.11 µM |  |  | 
COc1cc(O[C@H]2C(C)(C)[C@H](NC(=O)c3ccc(N4CCC(F)(CN5CCC6(CC5)COc5cc7c(cc56)n(C)c(=O)n7C5CCC(=O)NC5=O)CC4)cc3)C2(C)C)ccc1C#N (stereo partly drawn) [A-P-13] |  |  | 61 µM | 32% | 35% | 
COc1cc(O[C@H]2C(C)(C)[C@H](NC(=O)c3ccc(N4CCC(F)(CN5CCC6(CCc7cc(C(=O)N[C@H]8CCC(=O)NC8=O)c(F)cc7O6)CC5)CC4)cc3)C2(C)C)ccc1C#N [A-P-52, 1'-((1-(4-(((1r,3r)-3-(4-cyano-3-methoxyphenoxy)-2,2,4,4-tetramethylcyclobutyl)carbamoyl)phenyl)-4-fluoropiperidin-4-yl)methyl)-N-((S)-2,6-dioxopiperidin-3-yl)-7-fluorospiro[chroman-2,4'-piperidin]-6-carboxamide] | -56% | 23% | 0.2 µM |  |  | 
COc1cc(O[C@H]2C(C)(C)[C@H](NC(=O)c3ccc(N4CCC(CN5CC6(CCC7(CC6)COc6c7ccc7c6CN(C6CCC(=O)NC6=O)C7=O)C5)CC4)cc3)C2(C)C)ccc1C#N (relative stereo) [A-P-3] | 64% | 65% | 3.43 µM |  |  | 
COc1cc(O[C@H]2C(C)(C)[C@H](NC(=O)c3ccc(N4CCC(F)(CN5CCC6(CCc7cc(F)c(C(=O)N[C@H]8CCC(=O)NC8=O)cc7O6)CC5)CC4)cc3)C2(C)C)ccc1C#N [A-P-41] | -37% | -31% | 18.6 µM |  |  | 
COc1cc(O[C@H]2C(C)(C)[C@H](NC(=O)c3ccc(N4CCC5(CC4)CC(N4CCC6(CCc7cc(C(=O)N[C@H]8CCC(=O)NC8=O)c(F)cc7O6)CC4)C5)cc3)C2(C)C)ccc1C#N [A-P-37, 1'-(7-(4-(((1R,3R)-3-(4-cyano-3-methoxyphenoxy)-2,2,4,4-tetramethylcyclobutyl)carbamoyl)phenyl)-7-azaspiro[3.5]nonan-2-yl)-N-((S)-2,6-dioxopiperidin-3-yl)-7-fluorospiro[chroman-2,4'-piperidin]-6-carboxamide] | 10% | 63% | 2.23 µM |  |  | 
COc1cc(O[C@H]2C(C)(C)[C@H](NC(=O)c3ccc(N4CCC5(CC4)CC(N4CCC6(CC4)COc4cc7c(cc46)n(C)c(=O)n7C4CCC(=O)NC4=O)C5)cc3)C2(C)C)ccc1C#N (relative stereo) [A-P-21] | 52% | 55% | 8.23 µM |  |  | 
COc1cc(O[C@H]2C(C)(C)[C@H](NC(=O)c3ccc(N4CCC(CN5CCC6(CCc7cc(C(=O)N[C@H]8CCC(=O)NC8=O)c(F)cc7O6)CC5)(OC)CC4)cc3)C2(C)C)ccc1C#N [A-P-36] | 52% | 70% | 0.82 µM |  |  | 
C[C@H]1CC2(CCN(c3ccc(C(=O)N4CCC(CN5CCN6c7ccc(C(=O)N[C@H]8CCC(=O)NC8=O)cc7OC[C@@H]6C5)CC4)cc3)CC2)CN1c1ccc(C#N)c(Cl)c1 [A-P-69] | 52% | 79% | 0.28 µM |  |  | 
COc1cc(O[C@H]2C(C)(C)[C@H](NC(=O)c3ccc(N4CCC(CN5CCC6(CCc7cc(F)c(C(=O)N[C@H]8CCC(=O)NC8=O)cc7O6)CC5)CC4)cc3)C2(C)C)ccc1C#N [A-P-39] | 22% | 39% | 12.4 µM |  |  | 
Cn1c(=O)n(C2CCC(=O)NC2=O)c2ccc3c(c21)OCC31CCN(C2CC3(CCN(c4ccc(C(=O)N[C@H]5CC[C@H](Oc6ccc(C#N)c(Cl)c6)CC5)nn4)CC3)C2)CC1 (stereo partly drawn) [A-P-25] |  |  | 47.7 µM | 58% | 31% | 
(R)-3-((1-(4-(((S)-2-(3-chloro-4-cyanophenyl)-3-methyl-2,8-diazaspiro[4.5]decan-8-yl)phenyl)piperidin-4-yl)methyl)-N-(((S)-2,6-dioxopiperidin-3-yl)-1,2,3,4,4a,5-hexahydrobenzo[b]pyrazi no[1,2-d][1,4]oxazine-8-carboxamide [A-P-58] | 63% | 87% |  |  |  | 0.51 µM

From patent publication EP4722219A1 (Gan & Lee Pharmaceuticals Co., Ltd., priority 2023, dated 2024)
